Experimental data: publication PMC9656436, “Synthesis and Biological Evaluation of New Isoxazolyl Steroids as Anti-Prostate Cancer Agents” (International Journal of Molecular Sciences, 2022)
Read-outs that look alike come from different tables or passages of the source.

Tests used:
[1] = target: T1, CYP17A1 (Homo sapiens, UniProt P05093); assay: UV-Vis spectrophotometric titration (type I spectral response); format: binding
T1 construct: recombinant human CYP17A1, purified
T1 sequence (P05093 1-508): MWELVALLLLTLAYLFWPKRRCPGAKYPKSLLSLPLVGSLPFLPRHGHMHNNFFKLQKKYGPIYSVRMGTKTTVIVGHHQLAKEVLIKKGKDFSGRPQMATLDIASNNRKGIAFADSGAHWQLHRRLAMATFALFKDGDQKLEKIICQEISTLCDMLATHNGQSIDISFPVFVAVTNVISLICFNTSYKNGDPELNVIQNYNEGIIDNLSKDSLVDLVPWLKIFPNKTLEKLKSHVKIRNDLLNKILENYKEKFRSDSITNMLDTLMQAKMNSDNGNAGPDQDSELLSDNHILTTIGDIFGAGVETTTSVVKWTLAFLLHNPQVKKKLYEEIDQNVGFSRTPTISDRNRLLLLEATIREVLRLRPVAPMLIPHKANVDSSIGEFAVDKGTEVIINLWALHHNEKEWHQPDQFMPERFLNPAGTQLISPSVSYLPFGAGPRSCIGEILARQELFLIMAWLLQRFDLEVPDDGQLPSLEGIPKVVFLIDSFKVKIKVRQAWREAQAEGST

[2] = target: T2, CYP17A1 (Homo sapiens, UniProt P05093); assay: reconstituted […],20-lyase assay, HPLC, […] compound; format: biochemical; details: read-out: 17,20-Lyase Activity / Inhibition, %
T2 construct: recombinant human CYP17A1, reconstituted system; with NADPH-cytochrome P450 reductase (rat), cytochrome b5 (human)
T2 sequence (P00167 2-134 partner, one chain of several): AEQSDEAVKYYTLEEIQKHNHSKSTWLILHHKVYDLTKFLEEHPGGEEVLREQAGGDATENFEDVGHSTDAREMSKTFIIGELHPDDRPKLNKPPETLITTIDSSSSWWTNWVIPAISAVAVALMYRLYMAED

[3] = system: DU145; assay: cells; set-up: resazurin (Alamar blue) viability assay, resorufin fluorescence, GI50 from dose-response; details: Homo sapiens, DU-145, 72 h; read-out: Viability after 72 h (GI50) DU145
Experimental: (§1) Cells were seeded into the 96-well tissue culture plates and, on the other day, compounds were added in different concentrations in duplicate for 72 h. Upon treatment, the resazurin solution (Sigma Aldrich, St. Louis, MI, USA) was added for 4 h, and then the fluorescence of resorufin was measured at 544 nm/590 nm (excitation/emission) using a Fluoroskan Ascent microplate reader (Labsystems, Budapest, Hungary). The GI50 value was calculated from the dose–response curves that resulted from the measurements using GraphPad Prism 5. Antiproliferative properties of all novel steroids were tested in two AR-positive prostate cancer cell lines (LNCaP and LAPC-4) and one AR-negative cell line (DU145) using the Alamar-blue assay after 72 h treatment.

[4] = system: LAPC-4; assay: cells; set-up: resazurin (Alamar blue) viability assay, resorufin fluorescence, GI50 from dose-response; details: Homo sapiens, LAPC4, 72 h; read-out: Viability after 72 h (GI50) LAPC-4
Experimental: as §1

[5] = system: LNCaP; assay: cells; set-up: resazurin (Alamar blue) viability assay, resorufin fluorescence, GI50 from dose-response; details: Homo sapiens, 72 h, read-out: Viability after 72 h (GI50) LNCaP
Experimental: as §1

[6] = system: T3, AR; assay: cells; set-up: species or system ARE14; ARE-driven firefly luciferase reporter; AR transcriptional activity normalised to 1 nM R1881; details: 24 h
T3 construct: endogenous AR in ARE14 reporter cells (22Rv1-derived)
Experimental: ARE14 cells were seeded (40,000 cells/well) into the Nunc™ MicroWell™ 96-well optical plate (Thermo Fisher Scientific, Waltham, MA, USA) on the second day. The cultivation medium was discarded, and the cells were washed with PBS. Analyzed compounds were dissolved in medium supplemented with CSS (agonist mode) or CSS with 1 nM R1881 (antagonist mode) and added to cells, including CSS and 1 nM R1881 controls. Upon 24 h of incubation, cells were washed with PBS and lysed for 10 min in a lysis buffer (10 mM Tris pH = 7.4, 2 mM DCTA, 1% nonidet P40, 2 mM DTT) at 37 °C. Next, a reaction buffer (20 mM tricine pH = 7.8, 1.07 mM MgSO4^.7H2O, 5 mM ATP, 9.4 mM luciferin) was added, and the luminescence was measured using a Tecan M200 Pro microplate reader ([…]). Based on the structural similarity of novel derivatives with galeterone and other published compounds (abiraterone, 3, and [6]), we tested the effect of our compounds towards the AR-transcriptional activity. Compounds were evaluated using an AR-dependent reporter cell line (ARE14) with a firefly-luciferase gene under the control of an androgen response element.

[7] = target: T4, CYP17A1 (Homo sapiens, UniProt P05093); assay: reconstituted […]α-hydroxylase assay, HPLC, […] compound; format: biochemical; details: read-out: 17α-Hydroxylase Activity / Inhibition, %
T4 construct: recombinant human CYP17A1, reconstituted system; with NADPH-cytochrome P450 reductase (rat)
T4 sequence (P05093 1-508): T1 sequence (P05093 1-508)
T4 sequence (P00388 2-678 partner): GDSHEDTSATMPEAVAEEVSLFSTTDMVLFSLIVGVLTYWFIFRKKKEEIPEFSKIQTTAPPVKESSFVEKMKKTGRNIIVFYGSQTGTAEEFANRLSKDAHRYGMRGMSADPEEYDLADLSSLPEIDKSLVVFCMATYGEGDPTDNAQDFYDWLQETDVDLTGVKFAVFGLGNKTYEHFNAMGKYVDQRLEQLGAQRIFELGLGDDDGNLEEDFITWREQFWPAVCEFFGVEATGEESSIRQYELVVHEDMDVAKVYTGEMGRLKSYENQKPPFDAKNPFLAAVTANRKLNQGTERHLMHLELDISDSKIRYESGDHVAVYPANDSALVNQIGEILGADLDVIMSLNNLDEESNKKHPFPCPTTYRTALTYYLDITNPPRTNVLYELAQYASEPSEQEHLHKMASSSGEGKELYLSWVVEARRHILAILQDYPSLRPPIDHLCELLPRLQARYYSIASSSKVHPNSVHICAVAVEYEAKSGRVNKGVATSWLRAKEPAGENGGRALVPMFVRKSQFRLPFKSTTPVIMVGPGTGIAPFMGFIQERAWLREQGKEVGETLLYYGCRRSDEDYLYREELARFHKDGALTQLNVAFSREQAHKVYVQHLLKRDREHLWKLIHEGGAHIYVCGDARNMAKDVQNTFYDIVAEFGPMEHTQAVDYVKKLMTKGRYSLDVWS

[8] = target: T1, CYP17A1; assay: UV-Vis spectrophotometric titration (type II spectral response); format: binding
[9] = compound alone, vs 1 nM R1881 = 100%, read-out: AGONIST MODE 2 μM
[10] = compound alone, vs 1 nM R1881 = 100%, read-out: AGONIST MODE 10 μM
[11] = compound alone, vs 1 nM R1881 = 100%, read-out: AGONIST MODE 50 μM
[12] = with 1 nM R1881, read-out: % of control remaining

SMILES	Kd [1] [µM]	inhibition at 50 µM [2] [%]	GI50 [3] [µM]	GI50 [4] [µM]	GI50 [5] [µM]	activity at 2 µM [6, 9] [%]	activity at 10 µM [6, 10] [%]	activity at 50 µM [6, 11] [%]	activity at 2 µM [6, 12] [%]	activity at 10 µM [6, 12] [%]	activity at 50 µM [6, 12] [%]	Kd ([1]; read-out: Kd) [µM]	inhibition at 50 µM [7] [%]	Kd [8] [µM]
CC(=O)[C@H]1CC[C@H]2[C@@H]3CCC4=CC(=O)CC[C@]4(C)[C@H]3CC[C@]12C [Progesterone]	< 1													
C[C@]12CC[C@H]3[C@@H](CC=C4C[C@@H](O)CC[C@@]43C)[C@@H]1CC[C@@H]2Cc1cc(-c2cccnc2)on1 [41f, (17R)-17-((5-(Pyridin-3-yl)isoxazol-3-yl)methyl)-androst-5-en-3β-ol]		41.1												
C[C@]12CC[C@H](O)CC1=CC[C@@H]1[C@@H]2CC[C@]2(C)C(n3cnc4ccccc43)=CC[C@@H]12 [Gal, galeterone]			47.6 ± 0.2	28.6 ± 0.6	46.8 ± 0.1	15.4 ± 0.4	10.8 ± 3.1	2.4 ± 1.1	65.2 ± 6.1	35.1 ± 3.3	3 ± 1.8			
CC(C)(O)c1cc(C[C@H]2CC[C@H]3[C@@H]4CC=C5C[C@@H](O)CC[C@]5(C)[C@H]4CC[C@]23C)on1 [24j, (17R)-17-((3-(2-Hydroxypropan-2-yl)isoxazol-5-yl)methyl)-androst-5-en-3β-ol]			> 50	18.2 ± 1.2	25.8 ± 0.6	14.4 ± 2.8	12.6 ± 0.1	6.1 ± 1.5	100 ± 13.5	84.8 ± 17.4	21.6 ± 7.8	1.9 ± 0.23		
CC(C)c1cc(C[C@H]2CC[C@H]3[C@@H]4CC=C5C[C@@H](O)CC[C@]5(C)[C@H]4CC[C@]23C)on1 [24b, (17R)-17-((3-isopropylisoxazol-5-yl)methyl)-androst-5-en-3β-ol]													45	
C[C@]12CC[C@H]3[C@@H](CC=C4C[C@@H](O)CC[C@@]43C)[C@@H]1CC[C@@H]2Cc1ccon1 [41a, (17R)-17-(Isoxazol-3-ylmethyl)-androst-5-en-3β-ol]		42.3	> 50	> 50	> 50	14.5 ± 1.5	14.7 ± 0.1	12.1 ± 1.3	98.2 ± 17.5	73.7 ± 14.9	50.8 ± 18.8			
C[C@]12CC[C@H](O)CC1=CC[C@@H]1[C@@H]2CC[C@]2(C)C(c3cccnc3)=CC[C@@H]12 [abiraterone]														< 1
CCCCc1cc(C[C@H]2CC[C@H]3[C@@H]4CC=C5C[C@@H](O)CC[C@]5(C)[C@H]4CC[C@]23C)on1 [24d, 17β-((3-Butylisoxazol-5-yl)methyl)-androst-5-en-3β-ol]			> 50	> 50	> 50	17.8 ± 0.1	21.1 ± 1.6	18.6 ± 3.6	109 ± 12.1	113 ± 21.1	104 ± 42.6	1.5 ± 0.21		
C[C@]12CC[C@H]3[C@@H](CC=C4C[C@@H](O)CC[C@@]43C)[C@@H]1CC[C@@H]2Cc1cc(C2CC2)no1 [24c, (17R)-17-((3-Cyclopropylisoxazol-5-yl)methyl)-androst-5-en-3β-ol]													45.7	
C[C@]12CC[C@H]3[C@@H](CC=C4C[C@@H](O)CC[C@@]43C)[C@@H]1CC[C@@H]2Cc1cc(-c2ccccc2)no1 [24e, (17R)-17-((3-Phenylisoxazol-5-yl)methyl)-androst-5-en-3β-ol]			> 50	> 50	> 50	14.7 ± 0.5	14.2 ± 1.4	12.8 ± 0.2	101 ± 9.5	101 ± 13.6	125 ± 27.4			
C[C@]12CC[C@H]3[C@@H](CC=C4C[C@@H](O)CC[C@@]43C)[C@@H]1CC[C@@H]2Cc1cc(CCl)no1 [compound 38, (17R)-17-((3-(Chloromethyl)isoxazol-5-yl)methyl)-androst-5-en-3β-ol]			> 50	> 50	> 50	14.6 ± 1	13 ± 0.4	7.3 ± 1.1	96.1 ± 11.2	92.6 ± 20.5	78.2 ± 24.9			
C[C@]12CC[C@H]3[C@@H](CC=C4C[C@@H](O)CC[C@@]43C)[C@@H]1CC[C@@H]2Cc1cc(CO)no1 [compound 32, (17R)-17-((3-(Hydroxymethyl)isoxazol-5-yl)methyl)-androst-5-en-3β-ol]			> 50	18.9 ± 7.2	19.5 ± 0.1	14 ± 1.1	12.1 ± 2.7	14.6 ± 0.5	99.7 ± 17.4	87.8 ± 20.9	31.1 ± 13.3	13.4 ± 2.38		
C[C@]12CC[C@H]3[C@@H](CC=C4C[C@@H](O)CC[C@@]43C)[C@@H]1CC[C@@H]2Cc1ccno1 [24a, (17R)-(Isoxazol-5-ylmethyl)-androst-5-en-3β-ol]												0.13 ± 0.02		
C[C@]12CC[C@H]3[C@@H](CC=C4C[C@@H](O)CC[C@@]43C)[C@@H]1CC[C@@H]2CC(=O)/C(OC(=O)n1ccnc1)=C(\N)C1CC1 [compound 27, (E)-1-Amino-4-((17R)-3β-hydroxy-androst-5-en-17-yl)-1-cyclopropyl-3-oxobut-1-en-2-yl 1H-imidazole-1-carboxylate]			> 50	> 50	> 50	17.4 ± 0.5	20.9 ± 2.9	20.4 ± 4.2	89.7 ± 9.9	62 ± 14.8	63.5 ± 8			
